These results are taken from the supplement of paper PMC10290057.

Structures can show the parent of a compound that is named as a salt.

In assay [1] the test system is HCT116. As to the kind of experiment: efficacy (fitted maximal change in viability relative to DMSO control); higher = less cytotoxic (negative = loss of viability). As to conditions: 48 h.
The subject of assay [2] is HCT116. As to the kind of experiment: AC50 cell viability (CellTiter-Glo); higher = less potent. The note with it: 48 h.
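Throughout, for AC50 cell viability (CellTiter-Glo): HCT116 colorectal carcinoma cells screened at five concentrations per compound, luminescent viability scaled between DMSO wells and empty wells on each plate, curves fitted per compound.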
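Throughout, for efficacy (fitted maximal change in viability relative to DMSO control): Luminescence-based viability readout, five doses per compound, normalized against on-plate DMSO and empty-well controls, followed by dose-response curve fitting for every drug.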

Regarding `Oc1ccc([C@@H]2Oc3ccc(O)cc3[C@@H]3CCC[C@@H]32)cc1` [Erteberel], in assay [1], the efficacy was -73.8%. In assay [2], this compound showed an AC50 cell viability of 7.42 µM.

In the case of `C[C@]12CC[C@@H]3c4ccc(O)cc4CC[C@H]3[C@@H]1CC[C@@H]2O` [Estradiol], in assay [1], the efficacy was -60.4%. Besides, in assay [2], the AC50 cell viability worked out at 20.9 µM.

Consider `CCOC(=O)[C@@]1(CCCCCCOc2ccc(Cl)cc2)CO1` [Etomoxir], for which the efficacy in assay [1] is -42.1%. Moreover, the AC50 cell viability in assay [2] came to 18.6 µM.

With `COc1cc([C@@H]2c3cc4c(cc3[C@@H](O[C@@H]3O[C@@H]5CO[C@@H](C)O[C@H]5[C@H](O)[C@H]3O)[C@H]3COC(=O)[C@H]23)OCO4)cc(OC)c1O` [Etoposide], in assay [1], the efficacy is -41.9%. This compound also returned an AC50 cell viability in assay [2] of 2.95 µM.

For the compound `C=CC(=O)N1CCC(CNc2ncnc(N)c2-c2ccc(Oc3ccccc3)cc2)CC1` [Evobrutinib], in assay [1], the efficacy was -43.5%. The same compound gave an AC50 cell viability in assay [2] of 4.68 µM.

Turning to `CN1c2ccccc2C(=O)N2CCc3c([nH]c4ccccc34)C21` (stereo not given) [Evodiamine], in assay [1], the efficacy is -64.2%. In assay [2], this compound came in with an AC50 cell viability of 1.66 µM.

As for `CC[C@@]1(O)C(=O)OC/C2=C1/C=C3\N(CC4=C5[C@@H](N)CCC6=C5C(=CC(=C6C)F)N=C34)C2=O` [Exatecan], the efficacy in assay [1] is -64%. For the same compound, the AC50 cell viability in assay [2] was determined as 0.0417 µM.

As for `C[C@]12CC[C@H]3[C@@H](CC(=C)\C4=C\C(=O)\C=C/[C@]34C)[C@@H]1CCC2=O` [Exemestane], the efficacy in assay [1] was -65%. The compound further showed an AC50 cell viability in assay [2] of 18.6 µM.

Take `C=CC[C@@H]1/C=C(\C)C[C@H](C)C[C@H](OC)[C@H]2O[C@@](O)(C(=O)C(=O)N3CCCC[C@H]3C(=O)O[C@H](/C(C)=C/[C@@H]3CC[C@@H](O)[C@H](OC)C3)[C@H](C)[C@@H](O)CC1=O)[C@H](C)C[C@@H]2OC` [FK-506]: the efficacy in assay [1] was -91.2%. The compound also displayed an AC50 cell viability in assay [2] of 23.5 µM.

As for `CCN1C(=O)\C(=C/C2=C1N=C(NC3=CC=C(N4CCNCC4)C(=C3)F)N=C2)C5=CC=C(Cl)C=C5Cl` [FRAX-486], the efficacy in assay [1] was -32.6%. Further, in assay [2], the AC50 cell viability amounted to 2.63 µM.

On to `CCN1C(=O)\C(=C/C2=CN=C(NC3=CC=C(C=C3)N4CCN(C)CC4)N=C12)C5=C(Cl)C=C(C=C5)C6=CN=CS6` [FRAX-597], for which the efficacy in assay [1] was -59%. Further, the AC50 cell viability in assay [2] was 5.9 µM.

Consider `CCOC(=N)c1nc2ccc3ncnc(Nc4cc(F)c(F)cc4Cl)c3c2s1` [FX-9847], for which the efficacy in assay [1] is -41.6%. The AC50 cell viability in assay [2] was determined as 4.68 µM.

Regarding `O=C1c2ccccc2-[n+]2ccc3c([nH]c4ccccc43)c21` [Fascaplysin], the efficacy in assay [1] is -88.3%. Moreover, in assay [2], the AC50 cell viability was determined as 0.742 µM.

Turning to `O=[S+]([O-])(c1cccc2cnccc12)N1CCCNCC1` [Fasudil hydrochloride], in assay [1], the efficacy was -49.1%. Besides, in assay [2], the AC50 cell viability is 18.6 µM.

Regarding `COC(=O)Nc1nc2cc(Sc3ccccc3)ccc2[nH]1` [Fenbendazole], in assay [1], the efficacy was -79.7%. Also, the AC50 cell viability in assay [2] was 1.05 µM.

Consider `CC1=C(/C=C/C(C)=C/C=C/C(C)=C/C(=O)Nc2ccc(O)cc2)C(C)(C)CCC1` [Fenretinide], for which the efficacy in assay [1] is -84.3%. In assay [2], this compound had an AC50 cell viability of 23.5 µM.

`Clc1ccc(C(Cn2ccnc2)OCc2ccc(Sc3ccccc3)cc2)c(Cl)c1` (stereo not given) [Fenticonazole nitrate]: the efficacy in assay [1] was -90.5%. The AC50 cell viability in assay [2] amounted to 20.9 µM.

Regarding `CON(C)C(=O)N1/N=C(S[C@@]1(CCCN)C2=CC=CC=C2)/C3=CC(=CC=C3F)F` [Filanesib], the efficacy in assay [1] is -42.1%. The AC50 cell viability in assay [2] amounted to 20.9 µM.

In the case of `O=C(Nc1nc2cccc(-c3ccc(CN4CC[S+](=O)([O-])CC4)cc3)n2n1)C1CC1` [Filgotinib], in assay [1], the efficacy is -70.1%. The same compound showed an AC50 cell viability in assay [2] of 7.42 µM.

In the case of `CCCCCCCCc1ccc(CCC(N)(CO)CO)cc1` [Fingolimod hydrochloride], the efficacy in assay [1] is -105%. The same compound came in with an AC50 cell viability in assay [2] of 20.9 µM.

On to `CN1CC[C@H]([C@@H](O)C1)C2=C(O)C=C(O)C3=C2O\C(=C/C3=O)C4=CC=CC=C4Cl` [Flavopiridol], for which the efficacy in assay [1] is -63.7%. The compound also returned an AC50 cell viability in assay [2] of 0.186 µM.

`OC[C@H]1O[C@H](C[C@@H]1O)N2\C=C(F)/C(=O)NC2=O` [Floxuridine]: in assay [1], the efficacy is -82.9%. Also, the AC50 cell viability in assay [2] was determined as 0.235 µM.

As for `COC(=O)Nc1nc2cc(C(=O)c3ccc(F)cc3)ccc2[nH]1` [Flubendazole], in assay [1], the efficacy was -54.4%. Besides, in assay [2], the AC50 cell viability worked out at 0.468 µM.

Consider `Nc1nc(F)nc2c1ncn2[C@@H]1O[C@H](COP(=O)(O)O)[C@@H](O)[C@@H]1O` [Fludarabine phosphate], for which, in assay [1], the efficacy was -58.2%. Moreover, the AC50 cell viability in assay [2] came out at 7.42 µM.

For the compound `Cc1ncc(NC(=O)c2ccc(CN3CCN(C)CC3)c(C(F)(F)F)c2)cc1Nc1nccc(-c2cccnc2)n1` [Flumatinib mesylate], in assay [1], the efficacy is -95.8%. In addition, the AC50 cell viability in assay [2] came out at 18.6 µM.

Take `NC\1=N\C(=O)N(\C=C1)[C@H]\2[C@H](O)[C@H](O)C(=C2F)\CO` [Fluorocyclopentenylcytosine]: the efficacy in assay [1] is -66.3%. The same compound came in with an AC50 cell viability in assay [2] of 0.525 µM.

In the case of `F\C1=C\NC(=O)NC1=O` [Fluorouracil], the efficacy in assay [1] is -64.4%. Also, the AC50 cell viability in assay [2] worked out at 10.5 µM.

As to `OCCN1CCN(CCCN2c3ccccc3Sc3ccc(C(F)(F)F)cc32)CC1` [Fluphenazine hydrochloride], the efficacy in assay [1] was -94.5%. Also, the AC50 cell viability in assay [2] was found to be 7.42 µM.

Consider `C[C@@H]1CC2C3C[C@H](F)C\4=C\C(=O)\C=C/[C@]4(C)[C@@]3(F)[C@@H](O)C[C@]2(C)[C@@]1(OC(=O)C5=CC=CO5)C(=O)SCF` (stereo not given in full) [Fluticasone furoate], for which the efficacy in assay [1] is -76.9%. For the same compound, the AC50 cell viability in assay [2] was 20.9 µM.

Take `CC(C)n1c(/C=C/[C@H](O)C[C@H](O)CC(=O)O)c(-c2ccc(F)cc2)c2ccccc21` [Fluvastatin]: the efficacy in assay [1] is -71.8%. Further, the AC50 cell viability in assay [2] was 9.34 µM.

Consider `COc1cc2c(Oc3ccc(NC(=O)C4(C(=O)Nc5ccc(F)cc5)CC4)cc3F)ccnc2cc1OCCCN1CCOCC1` [Foretinib], for which the efficacy in assay [1] is -101%. The same compound yielded an AC50 cell viability in assay [2] of 5.9 µM.

Regarding `COc1cc(Nc2ncc(F)c(Nc3ccc4c(n3)N(COP(=O)(O)O)C(=O)C(C)(C)O4)n2)cc(OC)c1OC` [Fostamatinib], in assay [1], the efficacy is -70.2%. The AC50 cell viability in assay [2] is 18.6 µM.

In the case of `C[S+](=O)([O-])c1ccc(-c2nnc(/C=C/c3nnc(-c4ccc(C#N)cc4)o3)n2-c2ccccc2Cl)nc1` [G-007-LK], the efficacy in assay [1] was -48.4%. The compound also came in with an AC50 cell viability in assay [2] of 14.8 µM.

Take `CN(C)c1ccccc1CN1CCCN(Cc2ccccc2N(C)C)C1c1ccncc1` [GANT-61]: the efficacy in assay [1] was -88.6%. In addition, in assay [2], the AC50 cell viability worked out at 18.6 µM.

As to `O=C(Nc1ccnc(NC(=O)C2CC2)c1)c1c(Cl)cccc1Cl` [GDC-046], the efficacy in assay [1] is -79.8%. For the same compound, the AC50 cell viability in assay [2] was 2.35 µM.

Turning to `CC1(C)OCCn2c1nc1c(N3CCOCC3)nc(-c3cnc(N)nc3)nc12` [GDC-0084], the efficacy in assay [1] is -58.4%. The AC50 cell viability in assay [2] was 0.833 µM.

In the case of `CC(C)n1ncnc1-c1cn2c(n1)-c1ccc(O[C@@H](C)C(N)=O)cc1OCC2` [GDC-0326], in assay [1], the efficacy is -72.2%. Further, in assay [2], the AC50 cell viability is 6.61 µM.

In the case of `CCNC(=O)Nc1ccc(-c2nc3c(c(N4CCOC[C@@H]4C)n2)CCN(C2COC2)C3)cc1` [GDC-0349], the efficacy in assay [1] is -46.9%. Also, the AC50 cell viability in assay [2] amounted to 3.32 µM.

As to `O=C(NOCCO)c1ccc2cncn2c1Nc1ccc(I)cc1F` [GDC-0623], the efficacy in assay [1] is -43.9%. Further, the AC50 cell viability in assay [2] was 11.8 µM.

With `Cc1c(CN2CCN(C(=O)[C@H](C)O)CC2)sc2c(N3CCOCC3)nc(-c3cnc(N)nc3)nc12` [GDC-0980], the efficacy in assay [1] was -57.1%. The same compound had an AC50 cell viability in assay [2] of 0.525 µM.

For `CN(C)C1=C(Br)C=C(C=C1)C\2NC3=C(\C4=C2C(=O)CC(C)(C)C4)C5=CC=CC=C5C=C3` (stereo not given) [GLS-968], the efficacy in assay [1] was -31.2%. In assay [2], this compound had an AC50 cell viability of 9.34 µM.

As to `N#C/N=C(\NCCCCCCOc1ccc(Cl)cc1)Nc1ccncc1` [GMX-1778], the efficacy in assay [1] was -93.3%. For the same compound, the AC50 cell viability in assay [2] turned out to be 0.0132 µM.

With `COC1(c2sc3c(N4CCOCC4)nc(-c4cnc(N)nc4)nc3c2C)COC1` [GNE-317], the efficacy in assay [1] is -58.4%. Moreover, the AC50 cell viability in assay [2] was 0.59 µM.

For the compound `Cc1c(CN2CCN([S+](C)(=O)[O-])CC2)sc2c(N3CCOCC3)nc(-c3cnc(N)nc3)nc12` [GNE-477], the efficacy in assay [1] was -57.8%. This compound also showed an AC50 cell viability in assay [2] of 0.59 µM.

In the case of `Cc1nc(N)ncc1-c1nc(N2CCOCC2)c2sc(C(C)(C)O)cc2n1` [GNE-490], the efficacy in assay [1] was -66.6%. In assay [2], this compound returned an AC50 cell viability of 2.63 µM.

Consider `CC(C)(O)c1cc2nc(-c3cnc(N)nc3)nc(N3CCOCC3)c2s1` [GNE-493], for which the efficacy in assay [1] was -55.2%. The same compound registered an AC50 cell viability in assay [2] of 0.833 µM.

As to `O=C(NCc1ccc([S+](=O)([O-])c2cccc(C(F)(F)F)c2)cc1)c1cnc2[nH]ncc2c1` [GNE-618], the efficacy in assay [1] is -90.4%. The compound also displayed an AC50 cell viability in assay [2] of 0.0166 µM.

Consider `N#Cc1ccnc(Nc2cc(C3CCN(C4COC4)CC3)cc(N3CCC(F)(F)C3)n2)c1` [GNE-3511], for which, in assay [1], the efficacy was -77.1%. Further, the AC50 cell viability in assay [2] stood at 0.833 µM.

With `CNc1nc(Nc2cnn([C@H]3CCN(C4COC4)C[C@@H]3F)c2Cl)ncc1C(F)(F)F` [GNE-9605], the efficacy in assay [1] was -51.4%. In assay [2], this compound had an AC50 cell viability of 4.68 µM.

`NC(=O)c1cccc(-c2cc(Nc3ccc(OC(F)(F)F)cc3)ncn2)c1` [GNF-2]: in assay [1], the efficacy was -97.5%. Moreover, the AC50 cell viability in assay [2] turned out to be 18.6 µM.
